The results in this text go back to US8148391B2 (Cephalon, Inc., priority 2006, dated 2012).

Each structure is given as a SMILES string.

The target in test [1] is T1, baculovirus-expressed ALK (Homo sapiens, UniProt Q9UM73).
T1 construct: host or cells: baculovirus expression system
Nature of the test: ALK Kinase Assay (ELISA-type, time-resolved fluorescence). The format is biochemical. The following applies: ALK kinase inhibition, 1 μM ATP (Km level); read-out: ALK Activity. An outline of the steps: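 Wells were coated with phospholipase C-γ at 10 μg/mL in Tris-buffered saline. Adding 30 ng/ml enzyme started the reaction, which ran at 37° C for 15 minutes before Eu-N1 PT66 antibody detection. Percent inhibition versus log10 concentration gave IC50 by variable-slope fit.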
On the technique in general: In an ELISA, binding on a coated surface is turned into a signal by an enzyme label.

Test [2] concerns the target T2, c-Met (cytoplasmic domain) (Homo sapiens, UniProt P08581).
T2 construct: 10 ng/mL c-Met (cytoplasmic domain, Invitrogen Corporation #PV3143); purchased Invitrogen Corporation PV3143
As to the kind of experiment: c-Met Kinase Assay (same methods as for ALK, with modifications). The format is biochemical. The following applies: c-Met kinase inhibition, 1 μM ATP (Km level); read-out: cMet Activity. The method in brief: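 Steps: coat wells with PLC-γ (10 μg/mL, Tris-buffered saline); add 10 ng/mL c-Met cytoplasmic domain to initiate; incubate 15 min, 37° C; detect phosphoproduct via Eu-N1 PT66 antibody.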

T2 sequence (P08581 956-1390 limits assumed): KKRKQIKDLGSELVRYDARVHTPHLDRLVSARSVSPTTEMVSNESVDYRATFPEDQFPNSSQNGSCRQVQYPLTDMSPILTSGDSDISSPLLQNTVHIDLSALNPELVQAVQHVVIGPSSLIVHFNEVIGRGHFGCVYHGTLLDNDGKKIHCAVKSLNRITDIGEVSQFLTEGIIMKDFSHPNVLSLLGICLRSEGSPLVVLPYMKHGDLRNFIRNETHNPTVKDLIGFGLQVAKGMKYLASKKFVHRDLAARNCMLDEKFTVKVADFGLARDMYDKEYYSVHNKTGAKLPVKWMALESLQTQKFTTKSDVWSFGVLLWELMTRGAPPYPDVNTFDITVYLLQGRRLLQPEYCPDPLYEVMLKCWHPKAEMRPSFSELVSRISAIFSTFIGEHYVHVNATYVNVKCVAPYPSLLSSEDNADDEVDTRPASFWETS
T1 sequence (Q9UM73 19-1620): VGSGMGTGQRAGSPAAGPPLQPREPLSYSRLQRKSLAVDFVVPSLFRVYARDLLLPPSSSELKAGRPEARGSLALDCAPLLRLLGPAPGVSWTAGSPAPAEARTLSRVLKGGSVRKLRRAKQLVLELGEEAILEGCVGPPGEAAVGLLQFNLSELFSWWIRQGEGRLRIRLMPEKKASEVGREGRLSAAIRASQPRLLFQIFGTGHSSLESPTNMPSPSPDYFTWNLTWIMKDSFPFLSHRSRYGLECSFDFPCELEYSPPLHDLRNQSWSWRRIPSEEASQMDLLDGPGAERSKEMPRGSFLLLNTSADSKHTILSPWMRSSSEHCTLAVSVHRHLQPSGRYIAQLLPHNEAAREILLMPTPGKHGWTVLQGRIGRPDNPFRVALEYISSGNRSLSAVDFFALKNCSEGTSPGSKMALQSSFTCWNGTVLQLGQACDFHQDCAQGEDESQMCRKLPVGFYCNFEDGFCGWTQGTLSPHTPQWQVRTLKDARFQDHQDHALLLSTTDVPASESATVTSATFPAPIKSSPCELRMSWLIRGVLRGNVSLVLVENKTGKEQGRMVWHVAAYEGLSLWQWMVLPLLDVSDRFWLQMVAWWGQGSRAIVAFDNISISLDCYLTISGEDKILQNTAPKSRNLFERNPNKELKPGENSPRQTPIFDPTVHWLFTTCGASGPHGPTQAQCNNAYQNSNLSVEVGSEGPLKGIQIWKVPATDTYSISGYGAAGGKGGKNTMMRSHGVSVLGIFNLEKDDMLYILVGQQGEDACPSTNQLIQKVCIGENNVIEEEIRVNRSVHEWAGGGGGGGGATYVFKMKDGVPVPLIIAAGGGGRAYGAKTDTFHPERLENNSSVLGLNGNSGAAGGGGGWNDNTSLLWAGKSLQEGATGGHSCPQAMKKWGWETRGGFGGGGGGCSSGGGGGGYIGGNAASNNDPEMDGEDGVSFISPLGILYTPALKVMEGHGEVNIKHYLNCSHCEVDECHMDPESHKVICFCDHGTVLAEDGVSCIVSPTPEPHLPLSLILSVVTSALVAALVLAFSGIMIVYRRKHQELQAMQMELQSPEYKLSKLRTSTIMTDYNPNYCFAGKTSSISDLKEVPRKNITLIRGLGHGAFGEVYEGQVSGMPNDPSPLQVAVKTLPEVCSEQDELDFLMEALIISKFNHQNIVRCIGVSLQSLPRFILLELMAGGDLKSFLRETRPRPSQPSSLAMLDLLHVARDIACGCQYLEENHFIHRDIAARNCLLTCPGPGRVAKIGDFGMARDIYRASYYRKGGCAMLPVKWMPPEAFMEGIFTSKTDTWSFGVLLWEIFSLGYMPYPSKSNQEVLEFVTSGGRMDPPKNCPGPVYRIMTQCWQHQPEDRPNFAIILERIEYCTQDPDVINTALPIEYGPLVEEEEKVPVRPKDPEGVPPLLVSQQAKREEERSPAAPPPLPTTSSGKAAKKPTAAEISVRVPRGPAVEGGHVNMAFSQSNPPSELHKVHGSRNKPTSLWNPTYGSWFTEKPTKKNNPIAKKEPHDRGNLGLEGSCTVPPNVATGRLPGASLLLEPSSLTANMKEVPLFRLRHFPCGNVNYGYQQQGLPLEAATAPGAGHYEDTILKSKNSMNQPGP

Regarding `COC(=O)CN1CCN(C)c2cc(Nc3ncc(Cl)c(Nc4ccccc4NS(C)(=O)=O)n3)ccc2C1` [Example 472, {8-[5-Chloro-4-(2-methanesulfonylamino-phenylamino)-pyrimidin-2-ylamino]-1-methyl-1,2,3,5-tetrahydro-benzo[e][1,4]diazepin-4-yl}-acetic acid methyl ester], the IC50 in test [1] is < 100 nM; in test [2], 100 to 1000 nM.

For the compound `CC(=O)OCCN1CCN(C)c2cc(Nc3ncc(Cl)c(Nc4ccccc4NS(C)(=O)=O)n3)ccc2C1` [Example 473, Acetic acid 2-{8-[5-chloro-4-(2-methanesulfonylamino-phenylamino)-pyrimidin-2-ylamino]-1-methyl-1,2,3,5-tetrahydro-benzo[e][1,4]diazepin-4-yl}-ethyl ester], the IC50 in test [1] was < 100 nM; in test [2] it was 100 to 1000 nM.

In the case of `CN1CCN(S(C)(=O)=O)Cc2ccc(Nc3ncc(Cl)c(Nc4ccccc4NS(C)(=O)=O)n3)cc21` [Example 474, N-{2-[5-Chloro-2-(4-methanesulfonyl-1-methyl-2,3,4,5-tetrahydro-1H-benzo[e][1,4]diazepin-8-ylamino)-pyrimidin-4-ylamino]-phenyl}-methanesulfonamide], the IC50 in test [1] is < 100 nM; in test [2] it was 100 to 1000 nM.

With `CN1CCNCc2ccc(Nc3ncc(Cl)c(N[C@@H]4CCCC[C@H]4NS(C)(=O)=O)n3)cc21` [Example 475, N-{(1R,2R)-2-[5-Chloro-2-(1-methyl-2,3,4,5-tetrahydro-1H-benzo[e][1,4]diazepin-8-ylamino)-pyrimidin-4-ylamino]-cyclohexyl}-methanesulfonamide], the values for the IC50 in test [1] and in test [2] were < 100 nM and 1000 to 10000 nM, respectively.

For the compound `CC(=O)OCCN1CCN(C)c2cc(Nc3ncc(Cl)c(N[C@@H]4CCCC[C@H]4NS(C)(=O)=O)n3)ccc2C1` [Example 476, Acetic acid 2-{8-[5-chloro-4-((1R,2R)-2-methanesulfonylamino-cyclohexylamino)-pyrimidin-2-ylamino]-1-methyl-1,2,3,5-tetrahydro-benzo[e][1,4]diazepin-4-yl}-ethyl ester], the IC50 in test [1] is < 100 nM; in test [2], 1000 to 10000 nM.

On to `CN1CCN(S(C)(=O)=O)Cc2ccc(Nc3ncc(Cl)c(N[C@@H]4CCCC[C@H]4NS(C)(=O)=O)n3)cc21` [Example 477, N-{(1R,2R)-2-[5-Chloro-2-(4-methanesulfonyl-1-methyl-2,3,4,5-tetrahydro-1H-benzo[e][1,4]diazepin-8-ylamino)-pyrimidin-4-ylamino]-cyclohexyl}-methanesulfonamide], for which the IC50 in test [1] is < 100 nM; in test [2] it was 1000 to 10000 nM.

Regarding `CN1CCN(CCO)Cc2ccc(Nc3ncc(Cl)c(N[C@@H]4CCCC[C@H]4NS(C)(=O)=O)n3)cc21` [Example 478, N-((1R,2R)-2-{5-Chloro-2-[4-(2-hydroxy-ethyl)-1-methyl-2,3,4,5-tetrahydro-1H-benzo[e][1,4]diazepin-8-ylamino]-pyrimidin-4-ylamino}-cyclohexyl)-methanesulfonamide], the IC50 was < 100 nM in test [1] and 1000 to 10000 nM in test [2].

For `CN1CCN(CC2CC2)Cc2ccc(Nc3ncc(Cl)c(N[C@@H]4CCCC[C@H]4NS(C)(=O)=O)n3)cc21` [Example 479, N-{(1R,2R)-2-[5-Chloro-2-(4-cyclopropylmethyl-1-methyl-2,3,4,5-tetrahydro-1H-benzo[e][1,4]diazepin-8-ylamino)-pyrimidin-4-ylamino]-cyclohexyl}-methanesulfonamide], the IC50 was < 100 nM in test [1] and 1000 to 10000 nM in test [2].

For `C#CCN1CCN(C)c2cc(Nc3ncc(Cl)c(N[C@@H]4CCCC[C@H]4NS(C)(=O)=O)n3)ccc2C1` [Example 480, N-{(1R,2R)-2-[5-Chloro-2-(1-methyl-4-prop-2-ynyl-2,3,4,5-tetrahydro-1H-benzo[e][1,4]diazepin-8-ylamino)-pyrimidin-4-ylamino]-cyclohexyl}-methanesulfonamide], the IC50 was < 100 nM in test [1] and 1000 to 10000 nM in test [2].

For the compound `CN(C)C(=O)N1CCN(C)c2cc(Nc3ncc(Cl)c(N[C@@H]4CCCC[C@H]4NS(C)(=O)=O)n3)ccc2C1` [Example 481, 8-[5-Chloro-4-((1R,2R)-2-methanesulfonylamino-cyclohexylamino)-pyrimidin-2-ylamino]-1-methyl-1,2,3,5-tetrahydro-benzo[e][1,4]diazepine-4-carboxylic acid dimethylamide], the IC50 in test [1] is < 100 nM; in test [2], 1000 to 10000 nM.

In the case of `CN1CCN(C(=O)n2ccnc2)Cc2ccc(Nc3ncc(Cl)c(N[C@@H]4CCCC[C@H]4NS(C)(=O)=O)n3)cc21` [Example 482, N-((1R,2R)-2-{5-Chloro-2-[4-(imidazole-1-carbonyl)-1-methyl-2,3,4,5-tetrahydro-1H-benzo[e][1,4]diazepin-8-ylamino]-pyrimidin-4-ylamino}-cyclohexyl)-methanesulfonamide], the results for the IC50 in test [1] and in test [2] were < 100 nM and 100 to 1000 nM, respectively.

For the compound `CNC(=O)c1ccccc1Nc1nc(Nc2ccc3c(c2)N(C)CCN(S(C)(=O)=O)C3)ncc1Cl` [Example 483, 2-[5-Chloro-2-(4-methanesulfonyl-1-methyl-2,3,4,5-tetrahydro-1H-benzo[e][1,4]diazepin-8-ylamino)-pyrimidin-4-ylamino]-N-methyl-benzamide], the IC50 in test [1] and in test [2] was < 100 nM in each case.

On to `CNC(=O)c1ccccc1Nc1nc(Nc2ccc3c(c2)N(C)CCN(CCOC)C3)ncc1Cl` [Example 484, 2-{5-Chloro-2-[4-(2-methoxy-ethyl)-1-methyl-2,3,4,5-tetrahydro-1H-benzo[e][1,4]diazepin-8-ylamino]-pyrimidin-4-ylamino}-N-methyl-benzamide], for which the IC50 in test [1] and in test [2] was < 100 nM in each case.

As to `CNC(=O)c1ccccc1Nc1nc(Nc2ccc3c(c2)N(C)CCN(CCO)C3)ncc1Cl` [Example 485, 2-{5-Chloro-2-[4-(2-hydroxy-ethyl)-1-methyl-2,3,4,5-tetrahydro-1H-benzo[e][1,4]diazepin-8-ylamino]-pyrimidin-4-ylamino}-N-methyl-benzamide], the IC50 in test [1] and in test [2] was < 100 nM in each case.

As to `CNC(=O)c1ccccc1Nc1nc(Nc2ccc3c(c2)N(C)CCN(C(=O)n2ccnc2)C3)ncc1Cl` [Example 486, 2-{5-Chloro-2-[4-(imidazole-1-carbonyl)-1-methyl-2,3,4,5-tetrahydro-1H-benzo[e][1,4]diazepin-8-ylamino]-pyrimidin-4-ylamino}-N-methyl-benzamide], the IC50 in test [1] and in test [2] was < 100 nM each time.

Regarding `C#CCN1CCN(C)c2cc(Nc3ncc(Cl)c(Nc4ccccc4C(=O)NC)n3)ccc2C1` [Example 487, 2-[5-Chloro-2-(1-methyl-4-prop-2-ynyl-2,3,4,5-tetrahydro-1H-benzo[e][1,4]diazepin-8-ylamino)-pyrimidin-4-ylamino]-N-methyl-benzamide], the IC50 in test [1] and in test [2] was < 100 nM throughout.

For the compound `C#CCN1CCN(C)c2cc(Nc3ncc(Cl)c(Nc4ccccc4C(=O)N(C)CC#C)n3)ccc2C1` [Example 488, 2-[5-Chloro-2-(1-methyl-4-prop-2-ynyl-2,3,4,5-tetrahydro-1H-benzo[e][1,4]diazepin-8-ylamino)-pyrimidin-4-ylamino]-N-methyl-N-prop-2-ynyl-benzamide], the IC50 in test [1] and in test [2] was < 100 nM in each case.
